Reference: patent publication US12138369B2, “Magnetically-activated coating for treating biofilms, and associated systems and methods” (priority 2016, dated 2024)
Counter-ions that a name gives are not always drawn.

Assays:
[1] = system: Pseudomonas aeruginosa PAO1 biofilms; experiment: MBEC assay: antibiotic exposure with or without thermal shock, biofilm enumeration; format: cell-based; conditions: for viable biofilm bacteria after combined treatment: 1 min thermal shock; for effect on biofilm populations: higher concentrations, antibiotic on its own, cannot reliably eliminate
Procedure: Biofilm Growth: Cryogenically preserved Pseudomonas aerugiona PAO1 (15692, American Type Culture Collection, Manassas, Va.) was thawed and streaked on an agar plate (Difco Nutrient Agar, Sparks, Md., USA). The agar plates were inverted and incubated at 37° C. for 24 hours. An inoculum was made by suspending two colony forming units (CFUs) from the agar plate in five milliliters of sterile tryptic soy broth (TSB, BD Bacto, Sparks, Md., USA) made as directed and incubated at 37° C. for 24 hours, achieving an average concentration of 2.12×109±0.07×10^9 CFU/mL. One milliliter of inoculum was then diluted into 15 mL TSB and mixed gently. One hundred fifty microliters of the diluted mixture was then placed into each well of the 96-well plate, except for the negative control wells which received 150 μL of TSB. The plate was part of an MBEC™ assay (Innovotech, Edmonton, AB, Canada) in which a corresponding array of 96 pegs protrudes from the plate lid into the wells, providing a convenient array of substrates for biofilm growth which are then readily transferred to new wells (Harrison et al. 2010). The peg lid was placed onto the 96-well plate then sealed using Parafilm and placed on an orbital shaker table (VWR 1000, 15 mm orbit, Thorofare, N.J., USA) at 160 rpm and incubated at 37° C. for 24 hours.
Antibiotic Preparation: A stock of 5 mg/mL ciprofloxacin in sterile, de-ionized water was prepared with ciprofloxacin hydrochloride (MP Biomedicals, Santa Ana, Calif., USA) and mixed thoroughly. Tobramycin stock was made in a similar fashion by mixing 5 mg/mL tobramycin sulfate salt (Sigma-Aldrich, St. Louis, Mo., USA) in sterile, de-ionized water. Erythromycin was obtained from MP Biomedicals and the stock was prepared by mixing 5 mg/mL erythromycin into ethanol. Each antibiotic mixture was then filter sterilized through a […] PES membrane sterile filter (Millex®GP filter unit) and stored at 2° C. Each antibiotic was then diluted from the stock solution into sterile TSB at an array of concentrations in a 96-well challenge plate used that day.
Antibiotic Exposure: After 24 hr of growth, the array of biofilm-covered pegs was transferred into a 96-well rinse plate (Costar® 96 well flat bottom cell culture, Corning Incorporated, NY, USA) containing 200 μL/well de-ionized, sterile water at ambient temperature for 2 min to remove bacteria not incorporated in the biofilm. The peg lid was then transferred to a 96-well challenge plate of wells containing 200 μL of various concentrations of ciprofloxacin, tobramycin, or erythromycin diluted in TSB. For the antibiotic experiments without thermal shock the peg lid was exposed to a single challenge plate for 24 hours in an incubator at 37° C. before rinsing again for 2 min in a new rinse plate. The peg lid was then transferred to a recovery plate containing 200 μL/well fresh, sterile TSB for resuspension and enumeration.
Antibiotic and Thermal Exposure: To investigate the combined effect of antibiotics and thermal shock, biofilms cultured and exposed to antibiotics as discussed above were removed from their antibiotic challenge plate after only four hours. They were quickly transferred to a challenge plate with the same array of antibiotic concentrations, preheated to the target temperature by a thermostatted water bath. Temperatures of 37° C., 50° C., 60° C., 70° C., and 80° C. were studied at exposure times of 1, 5, and 30 min. The pegs were left in the heated challenge plate for the desired exposure time, then transferred to a new challenge plate with the same antibiotic concentrations at 37° C. and incubated for the remainder of the total 24 hour antibiotic exposure time. Following 24 total hours of antibiotic exposure time the peg lid was rinsed once again for two minutes in a new rinse plate and placed into a recovery plate for resuspension and enumeration. […]

[2] = system: dispersed planktonic bacteria (Pseudomonas aeruginosa PAO1); experiment: Optical density measurements of planktonic bacteria dispersed from biofilm; format: cell-based
Procedure: Optical Density Measurements of Planktonic Bacteria: The planktonic bacteria that had escaped the biofilm via dispersion after the thermal treatment were optically observed to better understand the biofilm's dispersion post-thermal treatment while antibiotics were still present. To estimate the free-swimming bacteria following the antibiotic treatment, the optical density (BioTek Gen5 Microplate Reader, Winooski, Vt., USA) at 600 nm was measured for each well in the second challenge plate. The negative controls in the challenge plate contained only TSB and were used to calculate an average background.
Statistical Analysis: The statistical analysis of both the planktonic optical density reads and the logarithmic CFU counts were reported via their arithmetic mean and standard deviation. […] Statistical analysis was performed in GraphPad Prism 7 using the two-way ANOVA with a confidence interval of 95%.

**Q.** Which results are given for `O=C(O)c1cn(C2CC2)c2cc(N3CCNCC3)c(F)cc2c1=O` [Ciprofloxacin, ciprofloxacin hydrochloride]?
**A.** effect on biofilms ([1]; 0.125 μg/mL by itself): little effect; reduction of biofilm populations ([1]; 0.125 μg/mL combined with thermal shock at 60° C. for 5 min): five orders of magnitude; reduction of biofilm populations ([1]; 0.125 μg/mL combined with thermal shock at 70° C. for 1 min): five orders of magnitude; viable biofilm bacteria after combined treatment ([1]; 1 μg/mL combined with 70° C.): no viable bacteria; decrease in viable bacteria of biofilms ([1]; 1 μg/mL, regardless of the heating): at least a five-order magnitude decrease; decrease in viable bacteria of biofilms ([1]; 4 μg/mL (bloodstream concentration), regardless of the heating): at least a five-order magnitude decrease; viable biofilm bacteria after combined treatment ([1]; 4 μg/mL combined with 70° C.): no viable bacteria; effect on biofilm populations [1]: significantly reduce biofilm populations; effect on dispersed planktonic bacteria ([2]; 0.125, 1.0, and 4.0 μg/mL, OD 600 nm): effective against the planktonic bacteria; effect on dispersed planktonic bacteria ([2]; higher two concentrations (1.0, 4.0 μg/mL), regardless of thermal shock): killing off almost all the free-swimming bacteria

**Q.** `CC[C@H]1OC(=O)[C@H](C)[C@@H](O[C@H]2C[C@@](C)(OC)[C@@H](O)[C@H](C)O2)[C@H](C)[C@@H](O[C@@H]2O[C@H](C)C[C@H](N(C)C)[C@H]2O)[C@](C)(O)C[C@@H](C)C(=O)[C@H](C)[C@@H](O)[C@]1(C)O` [Erythromycin, erythromycin] was tested. Which “decrease in viable bacteria of biofilms” value ([1]; 60° C. for 5 min, 64 μg/mL) did it give?
**A.** Its value is 1.5 log(CFU/peg).

**Q.** And the “decrease in viable bacteria of biofilms” value ([1]; 60° C. for 5 min, 128 μg/mL)?
**A.** The value was 2.7 log(CFU/peg).

**Q.** What about the “decrease in viable bacteria of biofilms” value ([1]; 70° C. for 1 min, 64 μg/mL) of the same molecule?
**A.** Its value is 2.3 log(CFU/peg).

**Q.** What about the “decrease in viable bacteria of biofilms” value ([1]; 70° C. for 1 min, 128 μg/mL) of the same molecule?
**A.** Its value is 6.0 log(CFU/peg).

**Q.** And the effect on biofilms ([1]; any concentration, control temperature 37° C.)?
**A.** Its effect on biofilms is “no effect”.

**Q.** What about the effect on biofilms ([1]; any concentration, in combination with 50° C. thermal treatments) of the same molecule?
**A.** Its effect on biofilms is “no effect”.

**Q.** What about the “effect on dispersed planktonic bacteria” value ([2]; 2 μg/mL) of the same molecule?
**A.** Its value is “no discernible effect”.

**Q.** And the “effect on dispersed planktonic bacteria” value ([2]; 64 μg/mL, even without thermal shock)?
**A.** Its value is “significant reduction in population”.

**Q.** What about the “effect on dispersed planktonic bacteria” value ([2]; 128 μg/mL) of the same molecule?
**A.** The value was “further decrease in viable planktonic bacterial cells”.

**Q.** And the “effect on dispersed planktonic bacteria, combined treatment” value ([2]; with 60° C. thermal shock for 5 min)?
**A.** Its value is “significantly reduced from the non-thermal-shocked values”.

**Q.** How did the “effect of combined thermal shock and antibiotic on biofilm” value ([1]; 50° C. for 30 min, 60° C. for 5 min, and 70° C. for 1 min) turn out when tobramycin sulfate salt was run?
**A.** Its value is “larger than either treatment by itself”.

**Q.** What about the “trend of biofilm mitigation with thermal exposure time” value ([1]; all non-zero concentrations, regardless of temperature (not at 37° C. control)) of the same molecule?
**A.** Its value is “prolonged thermal exposure time increasing the overall efficacy of biofilm mitigation”.

**Q.** And the “effect on biofilm populations” value [1]?
**A.** The value was “significantly reduce biofilm populations”.

**Q.** What about the “effect on dispersed planktonic bacteria” value ([2]; 1.0, 2.0, and 4.0 μg/mL, OD 600 nm) of the same molecule?
**A.** The value was “effective against the planktonic bacteria”.

**Q.** And the “effect on dispersed planktonic bacteria” value ([2]; higher two concentrations (2.0, 4.0 μg/mL), regardless of thermal shock)?
**A.** Its value is “killing off almost all the free-swimming bacteria”.
